Read-outs that look alike come from different tables or passages of the source.
Tests used:
[1] = target: T1, Human serotonin 5-HT6 receptor (Homo sapiens, UniProt P50406); experiment: [3H]LSD binding assay on cloned 5-HT6 receptor membranes
T1 construct: made in house; host or cells: insect Sf21 cells (baculovirus vector BacPAK8)

5-HT7 = target: T2, 5-HT7 (Homo sapiens, UniProt P34969); experiment: Radioligand binding, 5-HT7 ([3H]LSD); conditions: Table 4; [3H]LSD 3 nM; read-out: Binding affinity, IC50 (nM) 5-HT7
T2 construct: purchased Euroscreen/BioSignal Packard Inc

hD3 = target: T3, hD3 (Homo sapiens, UniProt P35462); experiment: Radioligand binding, dopamine D3 ([3H]spiperone); conditions: Table 4; [3H]spiperone 1 nM; read-out: Binding affinity, IC50 (nM) D3
T3 construct: purchased BioSignal Packard Inc., Montreal, Canada
Experimental: (§1) 2-2: Binding assays of Dopamine Receptor Family
(§2) The radioligands used were [^3H] spiperone (for hD2L and hD3 receptors, 1 nM) and [^3H] YM-09151-2 (for hD4.2 receptor, 0.06 nM). Radioligand bindings were performed by the protocols provided by the supplier of receptor membranes (BioSignal Packard Inc., Montreal, Canada). Briefly, the buffer used in D2 or D3 receptor binding assay was 50 mM Tris-HCl (pH 7.4), 10 mM MgCl2, 1 mM EDTA, or 50 mM Tris-HCl (pH 7.4), 5 mM MgCl2, 5 mM EDTA, 5 mM KCl, 1.5 mM CaCl2, 120 mM NaCl, respectively. In [^3H] YM-09151-2 receptor binding assays, the buffer containing 50 mM Tris-HCl (pH 7.4), 5 mM MgCl2, 5 mM EDTA, 5 mM KCl and 1.5 mM CaCl2 was used. […] Competition binding studies were carried out with 7-8 concentrations of the test compound run in duplicate tubes, and isotherms from three assays were calculated by computerized nonlinear regression analysis (GraphPad Prism Program, San Diego, […]) to yield median inhibitory concentration (IC50) values.

5-HT2c = target: T4, 5-HT2c (Homo sapiens, UniProt P28335); experiment: Radioligand binding, 5-HT2c ([3H]Mesulergine); conditions: Table 4; [3H]Mesulergine 1 nM; read-out: Binding affinity, IC50 (nM) 5-HT2c
T4 construct: purchased Euroscreen/BioSignal Packard Inc
T4 sequence (P28335 33-458): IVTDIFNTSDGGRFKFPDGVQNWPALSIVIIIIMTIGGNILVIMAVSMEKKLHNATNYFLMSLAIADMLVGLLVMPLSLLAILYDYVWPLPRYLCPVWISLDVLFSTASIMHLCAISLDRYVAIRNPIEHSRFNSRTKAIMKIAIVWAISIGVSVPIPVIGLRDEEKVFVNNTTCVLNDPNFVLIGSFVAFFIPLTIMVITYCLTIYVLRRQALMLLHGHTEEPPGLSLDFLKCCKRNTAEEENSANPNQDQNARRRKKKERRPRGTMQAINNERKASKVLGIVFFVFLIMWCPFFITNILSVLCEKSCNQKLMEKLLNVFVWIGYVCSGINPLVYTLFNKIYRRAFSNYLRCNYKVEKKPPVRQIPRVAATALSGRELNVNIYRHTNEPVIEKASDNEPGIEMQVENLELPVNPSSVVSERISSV

hD2L = target: T5, hD2L (Homo sapiens, UniProt P14416); experiment: Radioligand binding, dopamine D2 ([3H]spiperone); conditions: Table 4; [3H]spiperone 1 nM; read-out: Binding affinity, IC50 (nM) D2
T5 construct: purchased BioSignal Packard Inc., Montreal, Canada
Experimental: as §1, §2

D1 = D1 (Homo sapiens, UniProt P21728); experiment: Radioligand binding, dopamine D1; conditions: Table 4; read-out: Binding affinity, IC50 (nM) D1
5-HT2a = target: T6, 5-HT2a (Homo sapiens, UniProt P28223); experiment: Radioligand binding, 5-HT2a ([3H]Ketanserin); conditions: Table 4; [3H]Ketanserin 1 nM; read-out: Binding affinity, IC50 (nM) 5-HT2a
T6 construct: purchased Euroscreen/BioSignal Packard Inc

hD4.2 receptor = target: T7, hD4.2 receptor (Homo sapiens, UniProt P21917, DEL265-296); experiment: Radioligand binding, dopamine D4 ([3H]YM-09151-2); conditions: Table 4; [3H]YM-09151-2 0.06 nM; read-out: Binding affinity, IC50 (nM) D4
T7 construct: purchased BioSignal Packard Inc., Montreal, Canada
T7 sequence (P21917 with tags, fused parts or gaps DEL265-296): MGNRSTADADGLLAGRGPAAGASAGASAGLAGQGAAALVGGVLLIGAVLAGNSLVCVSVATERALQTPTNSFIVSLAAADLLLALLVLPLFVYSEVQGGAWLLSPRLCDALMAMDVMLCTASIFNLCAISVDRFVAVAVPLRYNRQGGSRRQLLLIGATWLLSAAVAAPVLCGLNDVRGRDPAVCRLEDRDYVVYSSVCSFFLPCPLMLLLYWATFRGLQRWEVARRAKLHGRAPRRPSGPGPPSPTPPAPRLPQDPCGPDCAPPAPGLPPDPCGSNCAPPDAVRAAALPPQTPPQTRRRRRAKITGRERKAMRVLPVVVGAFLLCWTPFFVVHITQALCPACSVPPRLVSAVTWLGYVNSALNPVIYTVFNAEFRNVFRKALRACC
Experimental: as §1, §2

5-HT1a = target: T8, 5-HT1a (Homo sapiens, UniProt P08908); experiment: Radioligand binding, 5-HT1a ([3H]8-OH-DPAT); conditions: Table 4; [3H]8-OH-DPAT 0.5 nM; read-out: Binding affinity, IC50 (nM) 5-HT1a
T8 construct: purchased Euroscreen/BioSignal Packard Inc
T8 sequence (P08908 1-422): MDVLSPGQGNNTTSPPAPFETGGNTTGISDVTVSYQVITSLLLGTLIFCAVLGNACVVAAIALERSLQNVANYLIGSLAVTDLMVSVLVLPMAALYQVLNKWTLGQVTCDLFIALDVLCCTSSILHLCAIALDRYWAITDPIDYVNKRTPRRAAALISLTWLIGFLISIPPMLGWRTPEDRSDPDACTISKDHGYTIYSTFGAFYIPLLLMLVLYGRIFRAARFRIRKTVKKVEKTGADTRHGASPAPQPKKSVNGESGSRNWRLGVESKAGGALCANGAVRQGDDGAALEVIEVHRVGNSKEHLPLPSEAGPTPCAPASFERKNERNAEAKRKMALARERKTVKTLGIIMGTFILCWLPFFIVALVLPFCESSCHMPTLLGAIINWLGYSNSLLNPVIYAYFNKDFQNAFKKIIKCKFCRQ
Experimental: Radioligand bindings were performed according to the test method provided by the supplier of receptor membrane (Euroscreen/BioSignal Packard Inc.). The detailed assay conditions and the results were shown in the following Table 3 and Table 4, respectively.

[2] = Table 2, 1.87 nM [3H]LSD, 37 C, 60 min, read-out: IC50 (nM), binding affinity to the 5-HT6 receptor
[3] = Table 4, read-out: Binding affinity, IC50 (nM) 5-HT6

T6 sequence (P28223 whole entry): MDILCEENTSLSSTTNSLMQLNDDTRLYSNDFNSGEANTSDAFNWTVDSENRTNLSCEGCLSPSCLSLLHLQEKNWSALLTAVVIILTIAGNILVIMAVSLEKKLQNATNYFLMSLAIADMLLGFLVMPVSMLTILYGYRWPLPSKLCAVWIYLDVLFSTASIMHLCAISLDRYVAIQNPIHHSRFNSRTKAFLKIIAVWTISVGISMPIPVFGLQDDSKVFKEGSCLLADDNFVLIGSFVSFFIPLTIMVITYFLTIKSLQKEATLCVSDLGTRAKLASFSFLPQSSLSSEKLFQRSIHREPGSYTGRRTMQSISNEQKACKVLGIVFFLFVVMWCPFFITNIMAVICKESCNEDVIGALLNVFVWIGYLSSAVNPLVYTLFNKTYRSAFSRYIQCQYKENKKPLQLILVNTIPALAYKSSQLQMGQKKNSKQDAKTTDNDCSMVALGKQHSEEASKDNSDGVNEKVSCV
T1 sequence (P50406 whole entry): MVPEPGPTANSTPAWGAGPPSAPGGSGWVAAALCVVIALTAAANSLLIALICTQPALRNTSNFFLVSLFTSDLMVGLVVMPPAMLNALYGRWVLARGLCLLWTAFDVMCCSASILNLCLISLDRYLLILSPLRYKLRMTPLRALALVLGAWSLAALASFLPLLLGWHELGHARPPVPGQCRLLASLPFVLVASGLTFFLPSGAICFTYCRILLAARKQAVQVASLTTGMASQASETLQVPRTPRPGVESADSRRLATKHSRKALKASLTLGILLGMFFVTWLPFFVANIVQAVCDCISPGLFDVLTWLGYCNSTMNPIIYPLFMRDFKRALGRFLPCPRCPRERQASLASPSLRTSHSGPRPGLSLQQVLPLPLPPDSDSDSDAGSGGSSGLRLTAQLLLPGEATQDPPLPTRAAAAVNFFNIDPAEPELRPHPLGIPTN
T5 sequence (P14416 whole entry): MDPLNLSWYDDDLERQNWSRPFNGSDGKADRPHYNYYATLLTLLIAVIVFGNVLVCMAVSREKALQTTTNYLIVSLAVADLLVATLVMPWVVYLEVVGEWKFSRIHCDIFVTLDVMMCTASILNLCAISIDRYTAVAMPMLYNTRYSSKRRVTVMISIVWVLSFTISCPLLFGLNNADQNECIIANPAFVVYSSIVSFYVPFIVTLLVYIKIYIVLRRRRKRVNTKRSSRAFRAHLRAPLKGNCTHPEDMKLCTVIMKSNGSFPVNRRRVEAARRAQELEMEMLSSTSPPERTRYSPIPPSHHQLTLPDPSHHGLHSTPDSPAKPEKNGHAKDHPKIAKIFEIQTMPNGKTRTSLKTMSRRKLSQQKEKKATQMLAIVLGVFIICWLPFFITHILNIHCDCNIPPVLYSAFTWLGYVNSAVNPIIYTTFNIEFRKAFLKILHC
Chain of D1 (P21728 whole entry): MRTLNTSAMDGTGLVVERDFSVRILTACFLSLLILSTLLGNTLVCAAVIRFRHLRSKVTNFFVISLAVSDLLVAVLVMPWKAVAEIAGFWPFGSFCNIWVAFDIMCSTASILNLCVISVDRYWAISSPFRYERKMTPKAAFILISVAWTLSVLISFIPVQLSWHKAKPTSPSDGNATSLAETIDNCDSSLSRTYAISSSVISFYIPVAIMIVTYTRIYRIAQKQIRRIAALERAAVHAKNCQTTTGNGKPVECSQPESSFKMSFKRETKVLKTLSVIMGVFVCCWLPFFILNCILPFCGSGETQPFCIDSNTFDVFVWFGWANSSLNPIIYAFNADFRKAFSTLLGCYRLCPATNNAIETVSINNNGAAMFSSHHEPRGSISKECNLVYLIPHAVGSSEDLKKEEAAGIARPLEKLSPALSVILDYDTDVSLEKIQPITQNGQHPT
T3 sequence (P35462 whole entry): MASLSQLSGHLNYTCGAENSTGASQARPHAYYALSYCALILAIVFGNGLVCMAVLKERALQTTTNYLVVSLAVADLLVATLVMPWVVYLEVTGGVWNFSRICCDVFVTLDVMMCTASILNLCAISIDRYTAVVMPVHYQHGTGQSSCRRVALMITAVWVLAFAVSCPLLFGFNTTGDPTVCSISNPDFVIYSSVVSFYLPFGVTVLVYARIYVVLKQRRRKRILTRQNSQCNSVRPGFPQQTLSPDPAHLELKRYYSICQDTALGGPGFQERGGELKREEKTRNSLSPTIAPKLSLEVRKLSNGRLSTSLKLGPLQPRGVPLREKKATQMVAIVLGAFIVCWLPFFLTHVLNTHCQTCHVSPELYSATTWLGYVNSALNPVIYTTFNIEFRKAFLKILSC
T2 sequence (P34969 whole entry): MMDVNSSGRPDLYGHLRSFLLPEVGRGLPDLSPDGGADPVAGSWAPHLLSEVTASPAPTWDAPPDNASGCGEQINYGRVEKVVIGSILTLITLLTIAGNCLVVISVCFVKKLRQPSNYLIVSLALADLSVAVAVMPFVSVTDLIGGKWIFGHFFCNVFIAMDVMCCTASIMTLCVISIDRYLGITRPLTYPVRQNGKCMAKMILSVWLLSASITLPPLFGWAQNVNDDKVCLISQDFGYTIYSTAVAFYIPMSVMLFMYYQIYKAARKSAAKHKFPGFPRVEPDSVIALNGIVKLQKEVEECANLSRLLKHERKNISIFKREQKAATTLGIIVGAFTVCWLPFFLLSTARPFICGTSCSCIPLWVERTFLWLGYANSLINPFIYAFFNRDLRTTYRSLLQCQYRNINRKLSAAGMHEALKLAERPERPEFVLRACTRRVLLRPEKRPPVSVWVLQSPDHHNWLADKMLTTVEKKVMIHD

Row | Compound | melting point | IC50 [1, 2] | IC50 [1, 3] | IC50 (5-HT7) | IC50 (hD3) | IC50 (5-HT2c) | IC50 (hD2L) | IC50 (D1) | IC50 (5-HT2a) | IC50 (hD4.2 receptor) | IC50 (5-HT1a)
1 | COc1ccc(C2(C)C(=O)c3c(N4CCNCC4)cc(Cl)cc3N(CC3CCCCC3)C2=O)cc1 (centres unmarked) [Example 48, 7-Chloro-1-cyclohexylmethyl-3-(4-methoxy-phenyl)-3-methyl-5-piperazin-1-yl-1H-quinoline-2,4-dione] | 127 to 128 °C | 251 nM | 16 nM | 8520 nM | 8990 nM | 8660 nM | 7510 nM | 7650 nM | 5910 nM | 9010 nM | 7540 nM
2 | COc1ccc(C2(C)C(=O)c3c(N4CCNCC4)cc(Cl)cc3N(Cc3ccc(-c4ccccc4)cc3)C2=O)cc1 (centres unmarked) [Example 41, 1-Biphenyl-4-ylmethyl-7-chloro-3-(4-methoxy-phenyl)-3-methyl-5-piperazin-1-yl-1H-quinoline-2,4-dione] | 142 to 144 °C | 351 nM | 15.5 nM | 7010 nM | 9000 nM | 8090 nM | 7680 nM | 6000 nM | 8470 nM | 9110 nM | 7810 nM
3 | COc1ccc(C2(C)C(=O)c3c(N4CCNCC4)cc(Cl)cc3N(Cc3cccc(N)c3)C2=O)cc1 (centres unmarked) [Example 25, 1-(3-Amino-benzyl)-7-chloro-3-(4-methoxy-phenyl)-3-methyl-5-piperazin-1yl-1H-quinoline-2,4-dione] | 183 to 184 °C | 6.2 nM | 15.9 nM | 8050 nM | 9660 nM | 7600 nM | 7650 nM | 6520 nM | 6610 nM | 9750 nM | 5890 nM
4 | COc1ccc(C2(C)C(=O)c3c(N4CCNCC4)cc(Cl)cc3N(Cc3ccc4ccccc4n3)C2=O)cc1 (centres unmarked) [Example 44, 7-Chloro-3-(4-methoxy-phenyl)-3-methyl-5-piperazin-1-yl-1-quinolin-2-ylmethyl-1H-quinoline-2,4-dione] | 200 to 201 °C | 6.9 nM | 19 nM | 7650 nM | 9840 nM | 7690 nM | > 1000 nM | 7650 nM | 6100 nM | 9270 nM | 7530 nM
5 | CC1(c2ccc(O)cc2)C(=O)c2c(N3CCNCC3)cc(Cl)cc2N(Cc2ccccc2Br)C1=O (centres unmarked) [Example 36, 1-(2-Bromo-benzyl)-7-chloro-3-(4-hydroxy-phenyl)-3-methyl-5-piperazin-1-yl-1H-quinoline-2,4-dione] | 264 to 265 °C | 29 nM | 15.1 nM | > 10000 nM | 9610 nM | 7160 nM | 7990 nM | 6030 nM | 6210 nM | 9000 nM | 9320 nM
6 | CN1CCN(c2cc(Cl)cc3c2C(=O)C(C)(c2ccc(O)cc2)C(=O)N3Cc2cccc([N+](=O)[O-])c2)CC1 (centres unmarked) [Example 8, 7-Chloro-3-(4-hydroxy-phenyl)-3-methyl-5-(4-methyl-piperazin-1-yl)-1-(3-nitro-benzyl)-1H-quinoline-2,4-dione] | 262 to 264 °C | 23.8 nM | 16.8 nM | 9440 nM | 9020 nM | 8810 nM | 7290 nM | 7040 nM | 6950 nM | 9150 nM | 7510 nM
7 | CC1(c2ccc(Cl)cc2)C(=O)c2c(N3CCNCC3)cc(Cl)cc2N(Cc2ccccc2)C1=O (centres unmarked) [Example 19, 1-Benzyl-7-chloro-3-(4-chloro-phenyl)-3-methyl-5-piperazin-1-yl-1H-quinoline-2,4-dione] | 135 to 136 °C | 2.3 nM | 15.3 nM | 7570 nM | 9140 nM | 6910 nM | 8450 nM | 7040 nM | 9100 nM | 8090 nM | 6550 nM
8 | COc1ccc(C2(C)C(=O)c3c(N4CCNCC4)cc(Cl)cc3N(Cc3nc4ccccc4[nH]3)C2=O)cc1 (centres unmarked) [Example 43, 1-(1H-Benzoimidazol-2-ylmethyl)-7-chloro-3-(4-methoxy-phenyl)-3-methyl-5-piperazin-1-yl-1H-quinoline-2,4-dione] | 178 to 179 °C | 137 nM | 19.3 nM | 9520 nM | 9440 nM | 7890 nM | 9010 nM | 6350 nM | 5800 nM | 9470 nM | 8020 nM
9 | COc1ccc(C2(C)C(=O)c3c(N4CCNCC4)cc(Cl)cc3N(Cc3ccccc3OC)C2=O)cc1 (centres unmarked) [Example 29, 7-Chloro-1-(2-methoxy-benzyl)-3-(4-methoxy-phenyl)-3-methyl-5-piperazin-1-yl-1H-quinoline-2,4-dione] | 153 to 155 °C | 34.2 nM | 15 nM | 7500 nM | 9410 nM | 8050 nM | 9170 nM | 7810 nM | 9150 nM | 9000 nM | 7580 nM
10 | COc1ccc(C2(C)C(=O)c3c(N4CCNCC4)cc(Cl)cc3N(Cc3ccccc3Br)C2=O)cc1 (centres unmarked) [Example 35, 1-(2-Bromo-benzyl)-7-chloro-3-(4-methoxy-phenyl)-3-methyl-5-piperazin-1-yl-1H-quinoline-2,4-dione] | 150 to 151 °C | 9.2 nM | 16.4 nM | 7820 nM | 9450 nM | 7720 nM | 7150 nM | 9750 nM | 7640 nM | 8880 nM | 9510 nM

Reference: US20080275058A1, “N-Substituted-1H-Quinoline-2,4-Diones, Preparation Method Thereof, And Pharmaceutical Composition Containing The Same” (KOREA RESEARCH INSTITUTE OF CHEMICAL TECHNOLOGY, priority 2005, published 2008)
